Measurements published in the NIST ThermoML archive (doi:10.1021/acs.jced.6b00430).
Numbers after ± are expanded uncertainties.

Experiment: xn = mol fraction of the nth substance listed
Conditions: 100 kPa, Liquid; for electrical conductivity: Alternating current cell with electrodes; for viscosity: Concentric cylinders viscometry; for mass density: Vibrating tube method

O=[PH](O)O [phosphonic acid] + CN(C)C=O
Conditions	electrical conductivity [S/m]	mass density [kg/m3]	viscosity [mPa·s]
298.15 K, x1 = 0.0911	–	992.53 ± 10	–
298.15 K, x1 = 0.1181	0.0572 ± 0.0057	–	–
298.15 K, x1 = 0.1365	–	1016.46 ± 10	–
298.15 K, x1 = 0.1798	–	1040.55 ± 10	–
298.15 K, x1 = 0.1829	–	1041.85 ± 10	–
298.15 K, x1 = 0.1973	–	–	2.92 ± 0.18
298.15 K, x1 = 0.2293	–	1069.29 ± 10	–
298.15 K, x1 = 0.2507	–	–	4.75 ± 0.29
298.15 K, x1 = 0.291	–	1104.79 ± 10	–
298.15 K, x1 = 0.2984	0.0925 ± 0.0093	–	7.07 ± 0.43
298.15 K, x1 = 0.3115	–	–	7.88 ± 0.47
298.15 K, x1 = 0.3298	0.0934 ± 0.0093	1129.74 ± 10	–
298.15 K, x1 = 0.3442	–	1137.78 ± 10	–
298.15 K, x1 = 0.3491	–	–	11.5 ± 0.7
298.15 K, x1 = 0.3712	–	1154.77 ± 10	–
298.15 K, x1 = 0.3937	–	1169.25 ± 10	–
298.15 K, x1 = 0.3968	0.129 ± 0.013	–	17.6 ± 1.1
298.15 K, x1 = 0.3988	–	–	17.8 ± 1.1
298.15 K, x1 = 0.4107	–	1182.13 ± 10	20.7 ± 1.2
298.15 K, x1 = 0.421	–	1188.34 ± 10	–
298.15 K, x1 = 0.4479	0.141 ± 0.014	1207.13 ± 10	28.7 ± 1.7
298.15 K, x1 = 0.4707	–	1221.83 ± 10	–
298.15 K, x1 = 0.493	–	1235.89 ± 10	–
298.15 K, x1 = 0.4968	–	–	41.6 ± 2.5
298.15 K, x1 = 0.5074	–	1244.77 ± 10	43.9 ± 2.6
298.15 K, x1 = 0.5196	–	1255.1 ± 10	–
298.15 K, x1 = 0.5429	–	1270.6 ± 10	–
298.15 K, x1 = 0.5503	–	–	62.4 ± 3.8
298.15 K, x1 = 0.5724	–	1292.1 ± 10	–
298.15 K, x1 = 0.5761	0.216 ± 0.022	–	73.5 ± 4.4
298.15 K, x1 = 0.5925	–	1306.05 ± 10	–
298.15 K, x1 = 0.5993	–	–	80.5 ± 4.9
298.15 K, x1 = 0.6245	–	1328.62 ± 10	–
298.15 K, x1 = 0.6261	–	–	90 ± 5.5
298.15 K, x1 = 0.6316	0.294 ± 0.029	–	95.2 ± 5.8
298.15 K, x1 = 0.6478	–	–	102.8 ± 6.3
298.15 K, x1 = 0.6554	0.333 ± 0.033	1355.76 ± 10	103.3 ± 6.3
298.15 K, x1 = 0.6753	–	1364.54 ± 10	–
298.15 K, x1 = 0.682	0.411 ± 0.041	–	113.5 ± 6.9
298.15 K, x1 = 0.6923	–	1378.85 ± 10	–
298.15 K, x1 = 0.7142	–	1399.02 ± 10	122.7 ± 7.5
298.15 K, x1 = 0.725	–	1401.52 ± 10	–
298.15 K, x1 = 0.7592	–	1432.85 ± 10	–
298.15 K, x1 = 0.7694	0.663 ± 0.066	1444 ± 10	139.8 ± 8.6
298.15 K, x1 = 0.7832	0.702 ± 0.07	–	142.5 ± 8.8
298.15 K, x1 = 0.7845	–	1450.65 ± 10	–
308.15 K, x1 = 0.0911	–	983.17 ± 10	–
308.15 K, x1 = 0.1181	0.0647 ± 0.0065	–	–
308.15 K, x1 = 0.1365	–	1007.16 ± 10	–
308.15 K, x1 = 0.1798	–	1031.35 ± 10	–
308.15 K, x1 = 0.1829	–	1032.63 ± 10	–
308.15 K, x1 = 0.1973	–	–	2.49 ± 0.15
308.15 K, x1 = 0.2293	–	1060.16 ± 10	–
308.15 K, x1 = 0.2507	–	–	3.92 ± 0.24
308.15 K, x1 = 0.291	–	1095.72 ± 10	–
308.15 K, x1 = 0.2984	0.116 ± 0.012	–	5.72 ± 0.34
308.15 K, x1 = 0.3115	–	–	6.3 ± 0.38
308.15 K, x1 = 0.3298	0.119 ± 0.012	1120.73 ± 10	–
308.15 K, x1 = 0.3442	–	1128.83 ± 10	–
308.15 K, x1 = 0.3491	–	–	9.06 ± 0.55
308.15 K, x1 = 0.3712	–	1145.98 ± 10	–
308.15 K, x1 = 0.3937	–	1160.41 ± 10	–
308.15 K, x1 = 0.3968	0.169 ± 0.017	–	13.3 ± 0.8
308.15 K, x1 = 0.3988	–	–	14 ± 0.8
308.15 K, x1 = 0.4107	–	1173.31 ± 10	15.4 ± 0.9
308.15 K, x1 = 0.421	–	1179.34 ± 10	–
308.15 K, x1 = 0.4479	0.19 ± 0.019	1198.35 ± 10	20.9 ± 1.3
308.15 K, x1 = 0.4707	–	1213.06 ± 10	–
308.15 K, x1 = 0.493	–	1227.23 ± 10	–
308.15 K, x1 = 0.4968	–	–	29.2 ± 1.8
308.15 K, x1 = 0.5074	–	1236.13 ± 10	30.3 ± 1.8
308.15 K, x1 = 0.5196	–	1246.49 ± 10	–
308.15 K, x1 = 0.5429	–	1262.02 ± 10	–
308.15 K, x1 = 0.5503	–	–	42.4 ± 2.6
308.15 K, x1 = 0.5724	–	1283.54 ± 10	–
308.15 K, x1 = 0.5761	0.301 ± 0.03	–	48.6 ± 2.9
308.15 K, x1 = 0.5925	–	1297.57 ± 10	–
308.15 K, x1 = 0.5993	–	–	51 ± 3.1
308.15 K, x1 = 0.6245	–	1320.2 ± 10	–
308.15 K, x1 = 0.6261	–	–	59.4 ± 3.6
308.15 K, x1 = 0.6316	0.41 ± 0.041	–	61.2 ± 3.7
308.15 K, x1 = 0.6478	–	–	64.5 ± 3.9
308.15 K, x1 = 0.6554	0.476 ± 0.048	1347.39 ± 10	66.1 ± 4
308.15 K, x1 = 0.6753	–	1356.23 ± 10	–
308.15 K, x1 = 0.682	0.589 ± 0.059	–	72.4 ± 4.4
308.15 K, x1 = 0.6923	–	1370.56 ± 10	–
308.15 K, x1 = 0.7142	–	1390.77 ± 10	78.3 ± 4.7
308.15 K, x1 = 0.725	–	1393.35 ± 10	–
308.15 K, x1 = 0.7592	–	1424.69 ± 10	–
308.15 K, x1 = 0.7694	0.959 ± 0.096	1435.87 ± 10	87.4 ± 5.3
308.15 K, x1 = 0.7832	1.02 ± 0.1	–	88.2 ± 5.4
308.15 K, x1 = 0.7845	–	1442.56 ± 10	–
318.15 K, x1 = 0.0911	–	973.7 ± 10	–
318.15 K, x1 = 0.1181	0.0725 ± 0.0073	–	–
318.15 K, x1 = 0.1365	–	997.83 ± 10	–
318.15 K, x1 = 0.1798	–	1022.15 ± 10	–
318.15 K, x1 = 0.1829	–	1023.41 ± 10	–
318.15 K, x1 = 0.1973	–	–	2.16 ± 0.13
318.15 K, x1 = 0.2293	–	1051.04 ± 10	–
318.15 K, x1 = 0.2507	–	–	3.35 ± 0.2
318.15 K, x1 = 0.291	–	1086.67 ± 10	–
318.15 K, x1 = 0.2984	0.142 ± 0.014	–	4.77 ± 0.29
318.15 K, x1 = 0.3115	–	–	5.21 ± 0.31
318.15 K, x1 = 0.3298	0.148 ± 0.015	1111.75 ± 10	–
318.15 K, x1 = 0.3442	–	1119.89 ± 10	–
318.15 K, x1 = 0.3491	–	–	7.26 ± 0.44
318.15 K, x1 = 0.3712	–	1137.21 ± 10	–
318.15 K, x1 = 0.3937	–	1151.58 ± 10	–
318.15 K, x1 = 0.3968	0.217 ± 0.022	–	10.5 ± 0.6
318.15 K, x1 = 0.3988	–	–	10.6 ± 0.6
318.15 K, x1 = 0.4107	–	1164.51 ± 10	12 ± 0.7
318.15 K, x1 = 0.4479	0.25 ± 0.025	–	15.8 ± 1
318.15 K, x1 = 0.4968	–	–	21.2 ± 1.3
318.15 K, x1 = 0.5074	–	–	22.2 ± 1.3
318.15 K, x1 = 0.5503	–	–	30 ± 1.8
318.15 K, x1 = 0.5761	0.397 ± 0.04	–	34.1 ± 2.1
318.15 K, x1 = 0.5993	–	–	35.2 ± 2.1
318.15 K, x1 = 0.6261	–	–	41.2 ± 2.5
318.15 K, x1 = 0.6316	0.548 ± 0.055	–	42 ± 2.5
318.15 K, x1 = 0.6478	–	–	43.6 ± 2.6
318.15 K, x1 = 0.6554	0.626 ± 0.063	–	45 ± 2.7
318.15 K, x1 = 0.682	0.81 ± 0.081	–	49 ± 3
318.15 K, x1 = 0.7142	–	–	51.4 ± 3.1
318.15 K, x1 = 0.7694	1.33 ± 0.13	–	57.3 ± 3.5
318.15 K, x1 = 0.7832	1.41 ± 0.14	–	58.4 ± 3.5
